The results in this text go back to patent publication US6960597B2, “Aza-bridged-bicyclic amino acid derivatives as α4 integrin antagonists” (Orth-McNeil Pharmaceutical, Inc., priority 2000, dated 2005).

Read-outs that look alike come from different tables or passages of the source. A value given as a limit tells only on which side of the number the result lay.

One assay addresses T1, human α4β7 (Homo sapiens, UniProt P13612+P26010).
T1 construct: expressed in transfected cells
T1 sequence (P13612 34-1032): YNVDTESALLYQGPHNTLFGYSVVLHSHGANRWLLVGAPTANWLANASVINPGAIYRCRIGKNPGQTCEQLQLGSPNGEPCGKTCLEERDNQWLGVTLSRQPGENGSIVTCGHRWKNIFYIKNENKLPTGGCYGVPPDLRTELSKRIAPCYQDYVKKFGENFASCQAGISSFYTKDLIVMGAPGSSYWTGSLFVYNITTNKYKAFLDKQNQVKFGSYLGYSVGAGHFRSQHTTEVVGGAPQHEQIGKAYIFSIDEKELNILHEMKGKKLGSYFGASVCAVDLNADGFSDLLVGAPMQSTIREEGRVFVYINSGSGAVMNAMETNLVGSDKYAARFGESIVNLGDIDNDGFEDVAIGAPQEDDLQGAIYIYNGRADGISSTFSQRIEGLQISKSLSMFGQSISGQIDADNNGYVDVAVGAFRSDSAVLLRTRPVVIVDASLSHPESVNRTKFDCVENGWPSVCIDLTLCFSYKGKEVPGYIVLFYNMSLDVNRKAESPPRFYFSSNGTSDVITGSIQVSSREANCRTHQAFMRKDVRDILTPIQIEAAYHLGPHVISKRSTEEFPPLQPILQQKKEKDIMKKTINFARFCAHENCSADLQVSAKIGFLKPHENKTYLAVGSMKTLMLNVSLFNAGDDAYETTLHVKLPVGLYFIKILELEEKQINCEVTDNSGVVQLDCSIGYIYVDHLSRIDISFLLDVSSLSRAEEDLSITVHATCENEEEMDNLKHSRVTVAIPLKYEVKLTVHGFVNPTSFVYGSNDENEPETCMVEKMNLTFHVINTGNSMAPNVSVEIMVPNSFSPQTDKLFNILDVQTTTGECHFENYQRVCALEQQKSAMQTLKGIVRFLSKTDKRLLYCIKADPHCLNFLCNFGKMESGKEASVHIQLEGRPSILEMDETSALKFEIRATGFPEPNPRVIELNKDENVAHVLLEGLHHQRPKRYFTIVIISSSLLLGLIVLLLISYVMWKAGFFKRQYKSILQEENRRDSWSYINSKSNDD
T1 sequence (P26010 20-798): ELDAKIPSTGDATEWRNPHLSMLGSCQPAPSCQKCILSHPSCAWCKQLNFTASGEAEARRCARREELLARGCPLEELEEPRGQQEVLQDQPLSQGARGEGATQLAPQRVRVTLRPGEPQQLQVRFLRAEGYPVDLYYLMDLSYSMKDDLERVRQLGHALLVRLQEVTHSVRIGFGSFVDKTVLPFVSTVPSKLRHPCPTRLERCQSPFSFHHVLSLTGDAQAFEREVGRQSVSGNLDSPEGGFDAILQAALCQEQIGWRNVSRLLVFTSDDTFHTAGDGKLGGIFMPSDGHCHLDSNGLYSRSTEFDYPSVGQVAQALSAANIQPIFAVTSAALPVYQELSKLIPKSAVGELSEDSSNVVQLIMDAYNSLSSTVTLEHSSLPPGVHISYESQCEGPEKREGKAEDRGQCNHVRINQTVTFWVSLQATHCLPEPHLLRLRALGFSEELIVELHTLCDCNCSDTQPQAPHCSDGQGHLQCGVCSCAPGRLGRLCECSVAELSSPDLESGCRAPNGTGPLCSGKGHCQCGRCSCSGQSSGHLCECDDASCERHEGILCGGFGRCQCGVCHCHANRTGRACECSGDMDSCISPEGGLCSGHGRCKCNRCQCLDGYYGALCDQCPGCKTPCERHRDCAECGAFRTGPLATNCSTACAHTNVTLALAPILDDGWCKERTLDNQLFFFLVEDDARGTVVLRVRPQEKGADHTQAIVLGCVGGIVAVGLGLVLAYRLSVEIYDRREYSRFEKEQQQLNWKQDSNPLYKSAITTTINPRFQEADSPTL
The experiment in a line: α4β7-K562 Cell Adhesion Assay (α4β7 Mediated Adhesion/VCAM-1). In kind it is cell-based. In short, it runs like this: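 K562 cells stably expressing human α4β7, labelled with 5 μM Calcein AM, adhered for 1 h at room temperature to plates coated with recombinant hVCAM-1 (4.0 μg/mL) in the presence of compound. After washing, cells were lysed in Tris/SDS. Bound cells were read by fluorescence at 485/530 nm.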

For another assay, the target named is T2, α4β1 integrin receptor (Homo sapiens, UniProt P05556+P13612).
T2 construct: Ramos Cell Adhesion Assay (α4β1 Mediated Adhesion/VCAM-1); endogenous in cells; host or cells: Ramos cells
The experiment in a line: Ramos Cell Adhesion Assay (α4β1 Mediated Adhesion/VCAM-1). Format: cell-based. In a few lines: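 Plates coated overnight at 4° C with recombinant hVCAM-1 (4.0 μg/mL, pH 9.0), then blocked with PBS/1% BSA. Ramos cells labelled with 5 μM Calcein AM adhered 1 h at room temperature with compound; after washing, cells were lysed in SDS and fluorescence read at 485/530 nm.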

The mark [1] stands for this setting: Inhibition of Binding of Ramos Cells to Immobilized VCAM-1 IC50, Table III.
Setting [2] is: Table III, read-out: Inhibition of Binding of Ramos Cells to Immobilized VCAM-1 IC50.
Where [3] appears, read: Table IV, read-out: Inhibition of Binding of K562 Cells to Immobilized VCAM-1 IC50.
Where [4] appears, read: Table IV, μM, read-out: Inhibition of Binding of K562 Cells to Immobilized VCAM-1 IC50.
Where [5] appears, read: Table III, μM, read-out: Inhibition of Binding of Ramos Cells to Immobilized VCAM-1 IC50.

T2 sequence (P05556 21-798, one chain of several): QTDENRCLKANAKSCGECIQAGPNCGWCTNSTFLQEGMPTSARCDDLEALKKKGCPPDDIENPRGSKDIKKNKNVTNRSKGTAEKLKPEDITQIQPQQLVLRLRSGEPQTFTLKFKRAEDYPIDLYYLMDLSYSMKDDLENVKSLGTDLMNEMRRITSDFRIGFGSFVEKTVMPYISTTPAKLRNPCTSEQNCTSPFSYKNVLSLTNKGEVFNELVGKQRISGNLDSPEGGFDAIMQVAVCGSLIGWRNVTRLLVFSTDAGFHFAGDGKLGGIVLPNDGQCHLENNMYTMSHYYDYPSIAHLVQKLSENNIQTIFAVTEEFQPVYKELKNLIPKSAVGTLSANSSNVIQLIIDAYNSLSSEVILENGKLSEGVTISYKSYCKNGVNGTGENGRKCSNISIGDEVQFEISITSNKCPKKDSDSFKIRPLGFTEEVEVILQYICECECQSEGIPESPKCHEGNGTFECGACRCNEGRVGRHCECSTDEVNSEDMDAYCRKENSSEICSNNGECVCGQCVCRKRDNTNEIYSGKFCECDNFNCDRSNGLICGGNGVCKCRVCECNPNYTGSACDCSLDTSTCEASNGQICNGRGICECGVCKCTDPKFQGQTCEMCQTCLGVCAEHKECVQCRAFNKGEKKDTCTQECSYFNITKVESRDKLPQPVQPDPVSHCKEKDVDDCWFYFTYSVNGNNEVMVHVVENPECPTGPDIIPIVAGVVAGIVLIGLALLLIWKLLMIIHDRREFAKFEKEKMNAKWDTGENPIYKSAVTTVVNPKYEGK

As for `CN(C)C(=O)Oc1ccc(C[C@H](NC(=O)[C@@H]2C3CCC(CC3)N2S(=O)(=O)c2ccccc2)C(=O)O)cc1` [Cpd 52a, O-[(dimethylamino)carbonyl]-N-[[(3S)-2-(phenylsulfonyl)-2-azabicyclo[2.2.2]oct-3-yl]carbonyl]-L-tyrosine], the IC50 worked out at 0.436 µM on human α4β7; 0.436 µM at human α4β7 (read-out: Inhibition of Binding of K562 Cells to Immobilized VCAM-1 IC50, Table IV); 0.045 µM on α4β1 integrin receptor (Antagonist IC50 Activity α4β1, Table I, racemic mixtures and resolved (S,S) and (R,S) diastereomers); 0.04 µM at α4β1 integrin receptor (setting [1]).
With `CC(C)(C)OC(=O)N1CCC(C(=O)Nc2ccc(C[C@H](NC(=O)[C@@H]3C4CCC(CC4)N3S(=O)(=O)c3ccccc3)C(=O)O)cc2)CC1` [Cpd 53a, 4-[[[1-[(1,1-dimethylethoxy)carbonyl]-4-piperidinyl]carbonyl]amino]-N-[[(3S)-2-(phenylsulfonyl)-2-azabicyclo[2.2.2]oct-3-yl]carbonyl]-L-phenylalanine], the IC50 on human α4β7 (Table I, racemic mixtures and resolved (S,S) and (R,S) diastereomers, read-out: Antagonist IC50 Activity α4β7) came out at 0.693 µM; at α4β1 integrin receptor (Table I, racemic mixtures and resolved (S,S) and (R,S) diastereomers, read-out: Antagonist IC50 Activity α4β1), 0.219 µM; at α4β1 integrin receptor (setting [2]), 0.219 µM.
As to `O=C(Nc1ccc(C[C@H](NC(=O)C2C3CCC(CC3)N2S(=O)(=O)c2ccc(F)cc2)C(=O)O)cc1)c1c(Cl)cccc1Cl` (stereo partly drawn) [Cpd 54, 4-[(2,6-dichlorobenzoyl)amino]-N-[[2-[(4-fluorophenyl)sulfonyl]-2-azabicyclo[2.2.2]oct-3-yl]carbonyl]-L-phenylalanine], the IC50 at human α4β7 (setting [3]) turned out to be 0.118 µM; at α4β1 integrin receptor (setting [2]) it was 0.146 µM.
For `COc1cccc(OC)c1C(=O)Nc1ccc(C[C@H](NC(=O)C2C3CCC(CC3)N2S(=O)(=O)c2ccc(F)cc2)C(=O)O)cc1` (stereo partly drawn) [Cpd 55, 4-[(2,6-dimethoxybenzoyl)amino]-N-[[2-[(4-fluorophenyl)sulfonyl]-2-azabicyclo[2.2.2]oct-3-yl]carbonyl]-L-phenylalanine], in that order: 0.091 µM and 0.303 µM.
Turning to `O=C(N[C@@H](Cc1ccc(OC(=O)N2CCOCC2)cc1)C(=O)O)C1C2CCC(CC2)N1S(=O)(=O)c1ccccc1` (stereo partly drawn) [Cpd 56, O-(4-morpholinylcarbonyl)-N-[[2-(phenylsulfonyl)-2-azabicyclo[2.2.2]oct-3-yl]carbonyl]-L-tyrosine], the IC50 on human α4β7 (setting [3]) was found to be 0.047 µM; on α4β1 integrin receptor (setting [2]), 0.139 µM.
With `CC(C)N(C(=O)Oc1ccc(C[C@H](NC(=O)C2C3CCC(CC3)N2S(=O)(=O)c2ccccc2)C(=O)O)cc1)C(C)C` (stereo partly drawn) [Cpd 57, O-[[bis(1-methylethyl)amino]carbonyl]-N-[[2-(phenylsulfonyl)-2-azabicyclo[2.2.2]oct-3-yl]carbonyl]-L-tyrosine], the IC50 is over 5 µM at human α4β7 (setting [4]) and 0.757 µM at α4β1 integrin receptor (setting [2]).
The like results for `CC(C)(C)c1ccc(C[C@H](NC(=O)C2C3CCC(CC3)N2S(=O)(=O)c2ccccc2)C(=O)O)cc1` (stereo partly drawn) [Cpd 58, 4-(1,1-dimethylethyl)-N-[[2-(phenylsulfonyl)-2-azabicyclo[2.2.2]oct-3-yl]carbonyl]-L-phenylalanine] were, in that order, over 10 µM and 0.523 µM.
With `O=C(Nc1ccc(C[C@H](NC(=O)C2C3CCC(CC3)N2S(=O)(=O)c2ccccc2)C(=O)O)cc1)C1CCNCC1` (stereo partly drawn) [Cpd 59, 4-[(4-piperidinylcarbonyl)amino]-N-[[2-(phenylsulfonyl)-2-azabicyclo[2.2.2]oct-3-yl]carbonyl]-L-phenylalanine], the IC50 amounted to 1.5 µM at human α4β7 (setting [3]) and 0.237 µM on α4β1 integrin receptor (setting [2]).
With `O=C(O)C(Cc1ccc(OCc2c(Cl)cccc2Cl)c(F)c1)NC(=O)C1C2CCC(CC2)N1S(=O)(=O)c1ccccc1` (centres unmarked) [Cpd 62], the IC50 is over 10 µM on human α4β7 (setting [4]) and over 5 µM on α4β1 integrin receptor (setting [5]).
Regarding `O=C(O)[C@H](Cc1ccc(OCc2c(Cl)cccc2Cl)c(F)c1)NC(=O)[C@@H]1C2CCC(CC2)N1S(=O)(=O)c1ccccc1` [Cpd 62a, O-[(2,6-dichlorophenyl)methyl]-3-fluoro-N-[[(3S)-2-(phenylsulfonyl)-2-azabicyclo[2.2.2]oct-3-yl]carbonyl]-L-tyrosine], the IC50 is over 10 µM at human α4β7 (setting [4]) and over 5 µM on α4β1 integrin receptor (setting [5]).
Turning to `CN(C)C(=O)Oc1ccc(C[C@H](NC(=O)C2C3CCC(CC3)N2S(=O)(=O)c2cccs2)C(=O)O)cc1` (stereo partly drawn) [Cpd 63, O-[(dimethylamino)carbonyl]-N-[[2-(2-thienylsulfonyl)-2-azabicyclo[2.2.2]oct-3-yl]carbonyl]-L-tyrosine], the IC50 on human α4β7 was 0.286 µM; on α4β1 integrin receptor (setting [1]), 0.112 µM.
As for `CC(C)(C)C(=O)Nc1ccc(C[C@H](NC(=O)[C@@H]2C3CCC(CC3)N2S(=O)(=O)c2ccccc2)C(=O)O)cc1` [Cpd 64, 4-[(2,2-dimethyl-1-oxopropyl)amino]-N-[[(3S)-2-(phenylsulfonyl)-2-azabicyclo[2.2.2]oct-3-yl]carbonyl]-L-phenylalanine], the IC50 on human α4β7 (setting [4]) was over 10 µM; at α4β1 integrin receptor (setting [2]), 0.393 µM.
Turning to `CCOc1ccc2ccccc2c1C(=O)Nc1ccc(C[C@H](NC(=O)[C@@H]2C3CCC(CC3)N2S(=O)(=O)c2ccccc2)C(=O)O)cc1` [Cpd 65, 4-[[(2-ethoxy-1-naphthalenyl)carbonyl]amino]-N-[[(3S)-2-(phenylsulfonyl)-2-azabicyclo[2.2.2]oct-3-yl]carbonyl]-L-phenylalanine], the IC50 on human α4β7 (setting [3]) is 0.394 µM; at α4β1 integrin receptor (setting [2]), 0.193 µM.
The like results for `O=C(Nc1ccc(C[C@H](NC(=O)C2C3CCC(CC3)N2S(=O)(=O)c2cccs2)C(=O)O)cc1)c1c(Cl)cccc1Cl` (stereo partly drawn) [Cpd 66, 4-[(2,6-dichlorobenzoyl)amino]-N-[[2-(2-thienylsulfonyl)-2-azabicyclo[2.2.2]oct-3-yl]carbonyl]-L-phenylalanine] were, in that order, 0.186 µM and 0.017 µM.
The like results for `O=C(Nc1ccc(C[C@H](NC(=O)[C@@H]2C3CCC(CC3)N2S(=O)(=O)c2ccccc2)C(=O)O)cc1)C1CC1` [Cpd 67, 4-[(cyclopropylcarbonyl)amino]-N-[[(3S)-2-(phenylsulfonyl)-2-azabicyclo[2.2.2]oct-3-yl]carbonyl]-L-phenylalanine] were, in that order, 0.683 µM and 0.628 µM.
Regarding `CC1(C)C(C(=O)Nc2ccc(C[C@H](NC(=O)[C@@H]3C4CCC(CC4)N3S(=O)(=O)c3ccccc3)C(=O)O)cc2)C1(C)C` [Cpd 68, 4-[[(2,2,3,3-tetramethylcyclopropyl)carbonyl]amino]-N-[[(3S)-2-(phenylsulfonyl)-2-azabicyclo[2.2.2]oct-3-yl]carbonyl]-L-phenylalanine], the figures for the IC50 on human α4β7 (setting [4]) and on α4β1 integrin receptor (setting [2]) were over 50 µM and 0.873 µM, respectively.
